The text below walks through data of ChEMBL document CHEMBL3046579, “Synthesis, anticancer and MRP1 inhibitory activities of 4-alkyl/aryl-3,5-bis(carboethoxy/carbomethoxy)-1,4-dihydro-2,6-dimethylpyridines” (Med Chem Res, 2013).

For one series, the system named is HT-29. Briefly: Cytotoxicity against Homo sapiens (human) HT-29 cells assessed as cell viability after 48 hr by MTT assay. The format is functional, cell-based. For orientation: Tetrazolium assays rely on reduction of a dye to a coloured formazan, in cell work by metabolically active cells.
The nature of series [1]: Cytotoxicity against Homo sapiens (human) MDA-MB cells assessed as cell viability after 48 hr by MTT assay. The class given is functional, cell-based.
Series [2] deals with T1, Multidrug resistance-associated protein 1 (Homo sapiens, UniProt P33527). Briefly: Inhibition of Homo sapiens (human) MRP1 expressed in Sf9 cell membranes assessed as decrease in N-ethyl-maleimide-glutathione-induced inorganic phosphate production at 1 to 1000 uM by spectrophotometric analysis in presence of glutathione.
The subject of a further series is HSC-2. Briefly: Cytotoxicity against Homo sapiens (human) HSC2 cells. The format is functional, cell-based.
Series [3] is described as follows: Cytotoxicity against Homo sapiens (human) HSG cells. The class given is functional, cell-based.
Series [4] addresses T2, MRP1 (Homo sapiens, UniProt P33527). Briefly: Inhibition of Homo sapiens (human) MRP1 expressed in Sf9 cell membranes assessed as decrease in N-ethyl-maleimide-glutathione-induced inorganic phosphate production at 10 uM by spectrophotometric analysis in presence of glutathione relative to control. Conditions: Sf9 cell membranes expressing human MRP1, probe N-ethyl-maleimide-glutathione; call rule not given here.

In series [5] the target is T1, Multidrug resistance-associated protein 1. Briefly: Inhibition of Homo sapiens (human) MRP1 expressed in Sf9 cell membranes assessed as decrease in N-ethyl-maleimide-glutathione-induced inorganic phosphate production by spectrophotometric analysis in presence of glutathione.
For series [6], the target named is T2, MRP1. Briefly: Inhibition of Homo sapiens (human) MRP1 expressed in Sf9 cell membranes assessed as decrease in N-ethyl-maleimide-glutathione-induced inorganic phosphate production at 50 uM by spectrophotometric analysis in presence of glutathione relative to control. The settings on record: Sf9 cell membranes expressing human MRP1, probe N-ethyl-maleimide-glutathione, read-out: Imax.

The mark [7] stands for this setting: Homo sapiens, MDA-MB, 48 h, read-out: IC50.
Setting [8] is: Homo sapiens, HT-29, 48 h, read-out: IC50.

SMILES strings stand for the structures.

T1 sequence (P33527 whole entry): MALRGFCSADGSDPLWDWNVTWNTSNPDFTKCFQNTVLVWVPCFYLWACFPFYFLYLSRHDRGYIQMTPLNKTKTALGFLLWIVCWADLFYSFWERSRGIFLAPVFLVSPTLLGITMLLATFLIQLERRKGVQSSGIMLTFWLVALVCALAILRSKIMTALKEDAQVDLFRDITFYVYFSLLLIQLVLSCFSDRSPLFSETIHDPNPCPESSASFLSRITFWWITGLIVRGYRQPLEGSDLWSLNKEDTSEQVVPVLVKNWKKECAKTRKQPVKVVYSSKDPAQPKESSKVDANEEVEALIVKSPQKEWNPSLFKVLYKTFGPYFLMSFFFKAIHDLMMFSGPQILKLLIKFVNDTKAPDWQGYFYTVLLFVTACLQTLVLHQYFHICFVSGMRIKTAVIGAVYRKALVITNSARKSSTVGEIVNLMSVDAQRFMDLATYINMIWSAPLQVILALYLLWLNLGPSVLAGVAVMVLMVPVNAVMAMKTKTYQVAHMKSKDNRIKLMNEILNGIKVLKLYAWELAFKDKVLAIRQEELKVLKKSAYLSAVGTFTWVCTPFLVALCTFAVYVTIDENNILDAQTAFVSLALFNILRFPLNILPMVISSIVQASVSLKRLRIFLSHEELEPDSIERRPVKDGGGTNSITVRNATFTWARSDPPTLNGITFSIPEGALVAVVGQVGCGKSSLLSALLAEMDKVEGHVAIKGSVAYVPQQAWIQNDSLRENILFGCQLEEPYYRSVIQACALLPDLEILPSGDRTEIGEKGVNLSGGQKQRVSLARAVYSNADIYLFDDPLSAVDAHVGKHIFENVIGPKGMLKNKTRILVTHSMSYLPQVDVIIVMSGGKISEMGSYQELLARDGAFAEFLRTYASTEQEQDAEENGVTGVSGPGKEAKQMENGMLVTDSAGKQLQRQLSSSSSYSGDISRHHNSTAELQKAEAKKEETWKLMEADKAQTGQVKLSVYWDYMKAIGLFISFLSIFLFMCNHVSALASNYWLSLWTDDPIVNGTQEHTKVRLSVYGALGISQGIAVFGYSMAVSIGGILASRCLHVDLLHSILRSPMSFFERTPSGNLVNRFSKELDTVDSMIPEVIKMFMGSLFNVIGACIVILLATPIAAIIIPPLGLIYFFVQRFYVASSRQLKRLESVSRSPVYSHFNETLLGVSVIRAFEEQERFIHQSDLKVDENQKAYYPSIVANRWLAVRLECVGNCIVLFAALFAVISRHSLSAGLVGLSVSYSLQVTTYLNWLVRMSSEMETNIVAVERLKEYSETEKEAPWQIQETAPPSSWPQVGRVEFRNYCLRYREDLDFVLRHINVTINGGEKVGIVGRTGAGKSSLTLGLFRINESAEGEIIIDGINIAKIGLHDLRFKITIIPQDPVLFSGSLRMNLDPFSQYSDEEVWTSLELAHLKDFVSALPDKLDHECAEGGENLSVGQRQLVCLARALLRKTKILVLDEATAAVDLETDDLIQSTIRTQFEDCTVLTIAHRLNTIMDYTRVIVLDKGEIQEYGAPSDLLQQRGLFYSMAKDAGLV
T2 sequence (P33527 whole entry): as above

For `CCOC(=O)C1=C(C)NC(C)=C(C(=O)OCC)C1c1ccc(OC)cc1`, the results for the concentration for half-maximal inhibition (IC50) result (with HT-29 (ht-29); in series [1] (setting [7])) were “Not Active” and 331 µM, respectively. Besides, the “inhibition (INH)” value in series [2] is “Not Active”.
For the compound `CCCC1C(C(=O)OC)=C(C)NC(C)=C1C(=O)OC`, the IC50 entry (in the series with HT-29 (ht-29); in series [1] (mda-mb)) was “Not Active” throughout.
With `COC(=O)C1=C(C)NC(C)=C(C(=O)OC)C1c1ccccc1`, the IC50 result (with HT-29 (ht-29); in series [1] (mda-mb)) was “Not Active” each time.
Regarding `COC(=O)C1=C(C)NC(C)=C(C(=O)OC)C1c1ccc(C)cc1`, the IC50 result in the series with HT-29 (ht-29) was “Not Active”; in series [1] (setting [7]), 500 µM. For the same compound, in series [2], the “inhibition (INH)” value is “Not Active”.
Turning to `CC1=C(C(=O)c2ccccc2)C(c2ccccc2C(F)(F)F)C(C(=O)c2ccccc2)=C(C)N1`, the IC50 (in the series with HSC-2; in series [3]) was 8.7 µM throughout.
In the case of `CCOC(=O)C1=C(C)NC(C)=C(C(=O)OCC)C1c1ccc(Cl)cc1`, on MRP1 [4], the inhibition at 10 µM is 47%. The IC50 amounted to 16 µM in series [5], 262 µM in the series with HT-29 (setting [8]) and 268 µM in series [1] (setting [7]). In addition, on MRP1 [6], the inhibition at 50 µM was determined as 65%.
In the case of `CCCCC1C(C(=O)OCC)=C(C)NC(C)=C1C(=O)OCC`, the IC50 entry is “Not Active” in the series with HT-29 (ht-29) and 350 µM in series [1] (setting [7]). In addition, the “inhibition (INH)” value in series [2] is “Not Active”.
Take `COC(=O)C1=C(C)NC(C)=C(C(=O)OC)C1c1ccc(OC)cc1`: the IC50 in the series with HT-29 (setting [8]) is 452 µM; in series [1] (mda-mb), “Not Active”.
Turning to `CC1=C(C(=O)c2ccccc2)C(c2ccccc2Cl)C(C(=O)c2ccccc2)=C(C)N1`, the IC50 is 7 µM in the series on HSC-2 and 28 µM in series [3].
On to `CCOC(=O)C1=C(C)NC(C)=C(C(=O)OCC)C1c1cccc([N+](=O)[O-])c1`, for which the half-maximal inhibitory concentration (IC50) with HT-29 (setting [8]) was 500 µM; in series [1] (setting [7]), 244 µM. Also, in series [2], the “inhibition (INH)” value is recorded as “Not Active”.
On to `CCOC(=O)C1=C(C)NC(C)=C(C(=O)OCC)C1c1ccccc1`, for which the IC50 entry (in the series on HT-29 (ht-29); in series [1] (mda-mb)) was “Not Active” throughout.
For `COC(=O)C1=C(C)NC(C)=C(C(=O)OC)C1c1ccc(Cl)cc1`, the figures for the 50% inhibitory concentration (IC50) entry (in the series on HT-29 (ht-29); in series [1] (setting [7])) were “Not Active” and 460 µM, respectively. For the same compound, the “inhibition (INH)” value in series [2] is on record as “Not Active”.
With `CCOC(=O)C1=C(C)NC(C)=C(C(=O)OCC)C1c1ccc(C)cc1`, the IC50 in the series with HT-29 (setting [8]) came out at 310 µM; in series [1] (setting [7]) it was 500 µM.
For the compound `CCCCC1C(C(=O)OC)=C(C)NC(C)=C1C(=O)OC`, the concentration for half-maximal inhibition (IC50) with HT-29 (setting [8]) was 500 µM; in series [1] (mda-mb), “Not Active”.
Consider `CCCC1C(C(=O)OCC)=C(C)NC(C)=C1C(=O)OCC`, for which the IC50 result is “Not Active” in the series with HT-29 (ht-29) and 500 µM in series [1] (setting [7]). Moreover, in series [2], the “inhibition (INH)” value was “Not Active”.

For orientation: IC50 means the point on the concentration scale where inhibition reaches its midpoint.
